Earlier results as cited in patent US5411479A, “Cancer treatment and catheter for use in treatment” (priority 1993, dated 1995).

Legend:
hepatocellular tumor = details: for activity in hepatocellular tumor: systemic chemotherapy, Phase II trials
[1] = for Local hepatobiliary toxicities (hepatitis, cholecystitis, biliary sclerosis, stenosis and stricture): conventional HAI; for Systemic toxicity of HAI chemotherapy: conventional doses; for Hepatitis (nausea, vomiting, abdominal pain, jaundice, elevated liver transaminases and bilirubin): in vivo
[2] = tested on: colon cancer metastatic to the liver; details: for effectiveness of arterial infusion: drug delivered directly to liver tumor cells

SMILES	activity in hepatocellular tumor (hepatocellular tumor)	Local hepatobiliary toxicities (hepatitis, cholecystitis, biliary sclerosis, stenosis and stricture) [1]	Systemic toxicity of HAI chemotherapy [1]	Hepatitis (nausea, vomiting, abdominal pain, jaundice, elevated liver transaminases and bilirubin) [1]	effectiveness of arterial infusion [2]	dose-response effect ([2]; in vivo)	objective therapeutic responses (hepatocellular tumor; doxorubicin 60 mg/m^2 every 3 weeks)	toxicity (hepatocellular tumor; doxorubicin 75 mg/m^2 every 3 weeks)	objective response (hepatocellular tumor; doxorubicin 75 mg/m^2 every 3 weeks, East African blacks, of 50 patients treated)	complete response (hepatocellular tumor; doxorubicin 75 mg/m^2 every 3 weeks, among 22 objective responses, 50 patients treated)
O=c1[nH]cc(F)c(=O)[nH]1 [5-FU, 5-fluorouracil]	significant activity	up to 50 % of the patients	has not been a major problem	has occurred	increases their effectiveness	displays a dose-response effect	–	–	–	–
COc1cccc2c1C(=O)c1c(O)c3c(c(O)c1C2=O)C[C@@](O)(C(=O)CO)C[C@@H]3O[C@H]1C[C@H](N)[C@H](O)[C@H](C)O1 [doxorubicin]	significant activity	–	–	–	–	–	approximately 20 % of the patients	Substantial toxicity	22 patients	3 patients
O=c1[nH]c(=O)n([C@H]2C[C@H](O)[C@@H](CO)O2)cc1F [FUDR, floxuridine]	–	up to 50 % of the patients	has not been a major problem	has occurred	increases their effectiveness	–	–	–	–	–
